Results from patent US11466024B2, “Bicylic compound acting as an inhibitor” (CHIA TAI TIANQING PHARMACEUTICAL GROUP CO., LTD., priority 2017, dated 2022).
Like-named read-outs stand apart in the source and are kept apart here.

Assays:
[1] = tested on: imiquimod-induced psoriasis; experiment: In vivo pharmacodynamic study in imiquimod (IMQ)-induced psoriasis model in mice; design: species or system C57BL/6 mice; conditions: for Clinical scores (Mean ± SEM, n = 8): 75 mg/kg
Protocol: 6- to 8-week old female C57BL/6 mice were selected, depilated on the backs, and sensitized two days later except for the sham operation group. On the day of sensitization, the mice were randomly divided into the following 6 groups (8 mice per group). Group I was a sham operation group; Group II was a vehicle control group and PBS was administered; Group III was a positive control group and 5 mg/kg methotrexate was administered; Groups IV, V and VI were ip treatment group, ig treatment group, and topical treatment group of the compound of Example 1, and 75 mg/kg of the compound of Example 1 was administered via intraperitoneal injection, intragastric administration, and dorsal application, respectively. Administration was started on the day of sensitization, once daily for Group III and twice daily for Groups IV to VI. On the day of sensitization, the mice in Groups II to VI were given 60 to 80 mg of imiquimod cream (5%) on the dorsal skin for 4 consecutive days. (Please refer to Bouchaud, G., et al., Epidermal IL-15Ralpha acts as an endogenous antagonist of psoriasiform inflammation in mouse and man. J. Exp. Med., 2013. 210(10): p. 2105-17.)
The mice were weighed daily from the day of sensitization, and the skin scales, induration, and erythema were observed and scored according to a four-grade scoring method: 0 point, no disease; 1 point, mild; 2 points, moderate; 3 points, severe; and 4 points, very severe. (Please refer to Qin, S., et al., Endogenous n-3 polyunsaturated fatty acids protect against imiquimod-induced psoriasis-like inflammation via the IL-17/IL-23 axis. Mol Med Rep, 2014. 9(6): p. 2097-104.)

[2] = Pharmacokinetic evaluation in mice after single IV and PO administration; assay type: in vivo; design: AUC(0-t) / AUC(0-inf): concentration or dose not given beside the values; conditions: Balb/c mice, plasma; for MRT inf: read-out: MRT0-inf; for MRT last: read-out: MRT0-last
Protocol: Balb/c mice (female, 15 to 30 g, 7- to 9-week old, Shanghai Lingchang) were used to test in vivo pharmacokinetics of compounds. The experimental method was as follows.
The pharmacokinetic characteristics of the compounds were tested by standard protocols after the compounds were administered to rodents by intravenous injection and oral administration. In the experiment, candidate compounds were formulated into clear solutions and administered to mice by a single intravenous injection and a single oral administration. The vehicle for intravenous injection (IV) was a mixed solvent of 5% of DMSO and 95% of 10% Cremophor EL, and the vehicle for oral administration (PO) was a mixed solvent of 1% tween 80, 9% PEG400 and 90% water. Whole blood samples within 48 hours were collected, and centrifuged at 3000 g at 4° C. for 15 minutes. The supernatant was separated to obtain the plasma sample, to which an acetonitrile solution containing an internal standard was added to precipitate the proteins, and the volume of the acetonitrile solution was 20 times that of the plasma sample. The supernatant was obtained by centrifugation, an equal volume of water was added thereto, and the mixture was centrifuged again to get the supernatant for sample injection. Plasma concentrations were quantitatively analyzed by an LC-MS/MS analytical method, and pharmacokinetic parameters, such as peak concentration, peak time, clearance rate, half-life, area under the concentration-time curve, and bioavailability, were calculated.
Of these, “10% Cremophor EL” referred to a deionized aqueous solution of Cremophor EL with a volume concentration of 10%. For example, taking the formulation of a 100 ml solution as an example, 10 ml Cremophor EL was taken and deionized water was added thereto, the mixture was well stirred, and then deionized water was added until the total volume was 100 ml. “Mixed solvent of 5% of DMSO and 95% of 10% Cremophor EL” referred to a mixed solvent comprised of DMSO and 10% Cremophor EL, in which […], and 10% Cremophor EL accounted for 95% of the volume of the mixed solvent. “Mixed solvent of 1% tween 80, 9% PEG400 and 90% water” meant that the volumes of tween 80, PEG400 and water accounted for 1%, 9% and 90% of the volume of the mixed solvent, respectively.

## CCS(=O)(=O)c1ccc(CNC(=O)c2cc3c(s2)C(C(C)C)N(C[C@H]2CC[C@H](C(F)(F)F)CC2)C3)nc1 (single isomer, unassigned) [Example 1]
[1]; 75 mg/kg by intraperitoneal injection, intragastric administration and dorsal application, FIG. 5
  effect on reducing the clinical scores compared with 5 mg/kg of methotrexate: equivalent
[1]; 75 mg/kg by intraperitoneal injection, intragastric administration and dorsal application, p<0.01, FIG. 5
  effect on the clinical scores (skin scales, induration): reduce the clinical scores significantly
[1]; ig, Day 1
  Clinical scores (Mean ± SEM, n = 8): 0 ± 0
[1]; ig, Day 2
  Clinical scores (Mean ± SEM, n = 8): 0.31 ± 0.13
[1]; ig, Day 3
  Clinical scores (Mean ± SEM, n = 8): 0.50 ± 0.19
[1]; ig, Day 4
  Clinical scores (Mean ± SEM, n = 8): 1.29 ± 0.21
[1]; ig, Day 5
  Clinical scores (Mean ± SEM, n = 8): 1.64 ± 0.18
[1]; ip, Day 1
  Clinical scores (Mean ± SEM, n = 8): 0 ± 0
[1]; ip, Day 2
  Clinical scores (Mean ± SEM, n = 8): 0.25 ± 0.13
[1]; ip, Day 3
  Clinical scores (Mean ± SEM, n = 8): 0.50 ± 0.16
[1]; ip, Day 4
  Clinical scores (Mean ± SEM, n = 8): 1.25 ± 0.19
[1]; ip, Day 5
  Clinical scores (Mean ± SEM, n = 8): 1.81 ± 0.25
[1]; topical, Day 1
  Clinical scores (Mean ± SEM, n = 8): 0 ± 0
[1]; topical, Day 2
  Clinical scores (Mean ± SEM, n = 8): 0.25 ± 0.13
[1]; topical, Day 3
  Clinical scores (Mean ± SEM, n = 8): 0.44 ± 0.15
[1]; topical, Day 4
  Clinical scores (Mean ± SEM, n = 8): 0.94 ± 0.24
[1]; topical, Day 5
  Clinical scores (Mean ± SEM, n = 8): 1.43 ± 0.20
[2]; IV
  AUCExtra: 6.28%
  AUMCExtra: 27.8%
  Tlast: 24.0 h
[2]; PO
  AUCExtra: 12.1%
  AUMCExtra: 41.3%
  Tlast: 24.0 h
[2]; female, mouse, IV
  AUC(0-inf): 3.92 µM·h
  AUC(0-t): 3.67 µM·h
  C0: 955 nM
  clearance: 7.62 mL/min/kg
  half-life: 6.84 h
  MRT inf: 7.66 h
  MRT last: 5.91 h
[2]; female, mouse, IV, read-out: Vdss
  Vd: 3.5 L/kg
[2]; female, mouse, PO
  AUC(0-inf): 35.1 µM·h
  AUC(0-t): 30.9 µM·h
  Cmax: 3520 nM
  Tmax: 1 h
  bioavailability: 89.7%
  half-life: 8.7 h
  MRT inf: 10.8 h
  MRT last: 7.19 h
